# Measurements published in patent US12485117B2, “Compositions and methods for activating signaling through the CB1 cannabinoid receptor for treating and preventing diseases and disorders characterized by abnormal cellular accumulation of sphingolipids such as sphingomyelin” (Wylder Nation Foundation, priority 2018, dated 2025).
# Legend:
# [1] = tested on: permeabilized ASMko neurons; test: Lysenin staining of SM in intracellular compartments of permeabilized ASMko neurons; assay type: cell-based, mouse; conditions: 1 hour at 50 μM (FIG. 9)
# Experimental: Statistical significance Student's t-test, *P<0.05, n=3 independent cultures.
# To determine whether SM hydrolysis induced by FAAH inhibitors was taking place not only at the cell surface, but also in intracellular compartments, we performed staining with lysenin, a worm toxin that specifically binds to SM, in permeabilized ASMko neurons non-treated or treated with anandamide, URB, PF-04457845 or JNJ for 1 hour at 50 μM.
# ASMko cultured neurons [2] = test: TUNEL assay of neuronal death in ASMko cultured neurons; assay type: cell-based, mouse; conditions: 50 μM for 1 hour
# Experimental: FIG. 10B is a graph showing mean±SEM percentage of apoptotic cells, measured by TUNEL assay, with respect to the positive control in which the cells were treated with H202.
# The percentage of dying neurons showing DNA fragmentation was 5-8% in the treated ASMko cultures similar to the non-treated ones.
# ASMko cultured neurons [3] = test: MAP2 immunofluorescence of dendrites in ASMko cultured neurons; assay type: cell-based, mouse; conditions: 50 μM for 1 hour
# wt and ASMko mice [4] = test: Y maze test (hippocampal dependent memory); assay type: in vivo, mouse; conditions: 0.3 mg/kg every three days
# Experimental: (§1) FIGS. 13A-13C show the effect of PF-04457845 treatment on various behavioral functions. […] (n=14; **p<0.01, *p<0.05).
# (§2) Treatment started at 7 weeks of age and continued for 8 weeks. PF-04457845 was dissolved in 0.9% NaCl and delivered through oral gavage at a dose of 0.3 mg/kg every three days. We chose this dose based on the studies published by Ahn et al., (J Pharm Exp Ther 2011). Control groups received same volume of 0.9% NaCl without PF-04457845.
# Hippocampal dependent memory was monitored by the Y maze test (FIG. 13A). During the first training trial (8 min) the mice were only allowed to explore two arms (the initial arm and one other arm), maintaining the third arm (novel arm) closed. After 1 hour, the mice were placed back in the same starting arm with free access to all three arms for 5 min.
# The time spent in the novel arm was counted and expressed as a percentage of the total exploration time. Non-treated ASMko mice spent less time in the novel arm than wt mice, indicative of impaired memory.
# wt and ASMko mice [5] = test: Elevated Plus Maze test; assay type: in vivo, mouse; conditions: 0.3 mg/kg every three days
# Experimental: as §1, §2
# Mood alterations were monitored by the Tail Suspension Test (FIG. 13B) and by the Elevated Plus Maze test (FIG. 13C) that give an idea of depressive state and anxiety, respectively. […] PF-04457845 treatment had no effect in the behavior of wt mice.
# wt and ASMko mice [6] = test: Sphingomyelin levels by enzymatic assay in tissue extracts after 8-week treatment; assay type: in vivo, mouse; conditions: 0.3 mg/kg every three days, 8 weeks
# Experimental: as §2
# Sphingomyelin levels were measured by enzymatic assays in extracts of different brain areas and in liver, spleen, and lung (FIG. 14).
# Purkinje cells [7] = test: Purkinje cell death by Calbindin1 staining in the cerebellum; assay type: in vivo, mouse; conditions: 0.3 mg/kg every three days
# Experimental: (§3) FIGS. 15A-15D show representative images of Purkinje cells from wildtype and ASMko mice treated or not treated with PF-04457845.
# as §2
# (§4) Purkinje cell death was analyzed by Calbindin1 staining in the cerebellum of wt and ASMko treated or not with PF-04457845 (FIG. 15A). Loss of Purkinje cells was prominent in non-treated ASMko mice compared to wt. […] PF-04457845 treatment had no effect on Purkinje cell survival in wt mice. We also analyzed Lysosomal size by staining Purkinje cells of the cerebellum for Lamp1 expression in samples from wt and ASMko mice treated or not treated with PF-04457845 (FIG. 15B). Lysosomal size was increased by an average 45% in the non-treated ASMko compared to wt mice consistent with sphingomyelin accumulation in these organelles. This alteration was prevented to a significant extent (35%) in the ASMko mice treated with PF.
# Purkinje cells [8] = test: Lysosomal size by Lamp1 staining of Purkinje cells; assay type: in vivo, mouse; conditions: ASMko mice, 0.3 mg/kg every three days
# Experimental: as §3, §2, §4
# anandamide levels = test: Anandamide levels by mass spectrometry in the hippocampus; assay type: in vivo, mouse; conditions: 0.3 mg/kg every three days
# Experimental: FIGS. 18A-18B show hippocampal anandamide and CB1 levels in wt and ASMko mice treated or not treated with PF-04457845. […] Graphs show mean±SEM CB1 intensity in arbitrary units (n=5, *p<0.05).
# as §2
# PF-04457845 inhibits the enzyme (FAAH) that hydrolyzes the endocannabinoid anandamide, which in turn activates the CB1 receptor leading to neutral sphingomyelinase activation and sphingomyelin hydrolysis. To determine the effects of PF-04457845 treatment in the endocannabinoid system we analyzed anandamide and CB1 levels in the brain of PF-04457845 treated and non-treated mice.
# wt or ASMko mice = test: Acute toxicity: in-life observations for 48 hours after a single oral dose; assay type: in vivo, mouse; conditions: 48 hours after single oral dose, any of the doses (0.1, 1, 5 mg/kg)
# Experimental: To that end, a toxicity assessment of oral PF-04457845 treatment in AMSko mice was performed to determine the toxicity in liver and brain of single doses of PF-04457845 administered by oral gavage at different concentration.
# We divided wt and ASMko mice of 4.5 months of age in six experimental groups: ASMko control (n=3), ASMko low dose (n=3), ASMko intermediate dose (n=3), ASMko high dose (n=3), wt control (n=3), wt high dose (n=3). PF-04457845, provided as powder, was dissolved in 0.9% NaCl and administered to mice through oral gavage. Vehicle groups received same volume of 0.9% NaCl.
# Doses have been calculated taking into account that used in the study conducted in healthy humans (Li et al., Br J Clin Pharmacol 2011, 73:706-716). […] Estimating an average weight of 60 kg for an adult human the daily dose equals to 0.0083 mg/kg. This dose was very similar to that used in our first 8 week-long treatment with PF-04457845 in ASMko mice, which according to the formulas to calculate equivalence between humans and mice (Nair and Jacob J Basic Clin Pharma 2016, 7:27-31) corresponded to a daily HED dose of 0.0072 mg/kg. For this toxicity study we agreed to take into account the human dose: 0.0083 mg/kg. Formula conversion to mouse dose: HED (mg/kg)=Mouse dose (mg/kg)×mouseKm/Human Km).
# [9] = in vivo; cited from earlier work
smiles,measurement,setting,value
O=C(Nc1cccnn1)N1CCC(=Cc2cccc(Oc3ccc(C(F)(F)F)cn3)c2)CC1 [PF-04457845],SM levels in intracellular compartments (lysenin staining),[1],significantly reduced SM levels
same,neuronal death as assessed by TUNEL,ASMko cultured neurons [2],did not induce neuronal death
same,"morphology, length, appearance of dendrites (MAP2)",ASMko cultured neurons [3],"did not alter the morphology, length or homogeneous appearance of dendrites"
same,time in the novel arm of Y maze (memory),wt and ASMko mice [4]; ASMko mice,restored memory function
same,"time in the novel arm of Y maze, treated versus non-treated",wt and ASMko mice [4]; wt mice,No differences
same,behavior in Elevated Plus Maze test (anxiety),wt and ASMko mice [5]; ASMko mice,normalized
same,behavior in Elevated Plus Maze test,wt and ASMko mice [5]; wt mice,no effect
same,sphingomyelin levels in cerebellum,wt and ASMko mice [6]; ASMko mice,significant reduction of sphingomyelin
same,sphingomyelin levels in cortex,wt and ASMko mice [6]; ASMko mice,significant reduction of sphingomyelin
same,sphingomyelin levels in hippocampus,wt and ASMko mice [6]; ASMko mice,significant reduction of sphingomyelin
same,sphingomyelin levels in liver,wt and ASMko mice [6]; ASMko mice,significant reduction of sphingomyelin
same,sphingomyelin levels in lung,wt and ASMko mice [6]; ASMko mice,non-statistically significant trend towards a decrease
same,sphingomyelin levels in spleen,wt and ASMko mice [6]; ASMko mice,significant reduction of sphingomyelin
same,sphingomyelin levels in tissues,wt and ASMko mice [6]; wt mice,did not alter sphingomyelin levels
same,Purkinje cell death (Calbindin1),"Purkinje cells [7]; ASMko mice, cerebellum",prevented cell death in a significant percentage of cells
same,Purkinje cell survival,Purkinje cells [7]; wt mice,no effect
same,increase of lysosomal size prevented (Lamp1),Purkinje cells [8],35%
same,increase of anandamide levels in the hippocampus,anandamide levels; ASMko mice,1.96 fold
same,increase of anandamide levels in the hippocampus,anandamide levels; wt mice,2.09 fold
same,"adverse effects (abnormal behavior, weight loss, motor anomalies, skin alterations)",wt or ASMko mice,No evident adverse effects
same,brain blood barrier crossing,[9],can cross the brain blood barrier
